Experiments:
Test in all cases: radiometric filter-binding kinase assay
[1] = target: SRC (chicken); details: ATP 50 µM, accession and sequence are those of the human protein
[2] = target: CSNK1D (human) (UniProt P48730); details: compound 1.0 µM; ATP 20 µM
[3] = target: PHKG1 or PHKG2 (human) (UniProt P15735+Q16816); details: compound 1.0 µM; ATP 50 µM
[4] = target: MAPK11 (human) (UniProt Q15759); details: compound 1.0 µM; ATP 20 µM
[5] = target: PRKCG (human) (UniProt P05129); details: compound 1.0 µM; ATP 5 µM
[6] = target: CSNK2A1 or CSNK2A2 (human) (UniProt P19784+P68400); details: compound 1.0 µM; ATP 5 µM
[7] = target: PAK7 (human) (UniProt Q9P286); details: compound 1.0 µM; ATP 20 µM
[8] = target: PDPK1 (human) (UniProt O15530); details: compound 1.0 µM
[9] = target: MAPK14 (human) (UniProt Q16539); details: compound 10.0 µM; ATP 50 µM
[10] = target: MAPK9 (human) (UniProt P45984); details: compound 25.0 µM; ATP 20 µM
[11] = target: PKN2 (human) (UniProt Q16513); details: compound 10.0 µM; ATP 5 µM
[12] = tested on: AKT1 (human), P31749 [S473D]; details: compound 10.0 µM; ATP 5 µM
Chain of AKT1 (human), P31749 [S473D] (P31749 whole entry S473D, looked up): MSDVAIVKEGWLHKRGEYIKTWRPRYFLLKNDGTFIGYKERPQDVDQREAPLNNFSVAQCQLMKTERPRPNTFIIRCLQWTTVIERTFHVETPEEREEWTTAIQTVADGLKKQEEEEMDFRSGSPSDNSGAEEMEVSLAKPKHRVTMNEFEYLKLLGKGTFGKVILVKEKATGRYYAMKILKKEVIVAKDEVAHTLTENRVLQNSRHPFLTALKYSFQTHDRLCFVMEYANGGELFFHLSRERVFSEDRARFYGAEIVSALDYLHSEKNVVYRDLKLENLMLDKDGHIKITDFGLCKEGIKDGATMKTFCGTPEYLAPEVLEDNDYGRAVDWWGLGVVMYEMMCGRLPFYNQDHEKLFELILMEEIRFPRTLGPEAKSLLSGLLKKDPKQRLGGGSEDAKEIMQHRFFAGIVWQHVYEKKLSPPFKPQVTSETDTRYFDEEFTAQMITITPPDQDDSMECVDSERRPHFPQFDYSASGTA

Chain of PDPK1 (human) (O15530 whole entry, looked up): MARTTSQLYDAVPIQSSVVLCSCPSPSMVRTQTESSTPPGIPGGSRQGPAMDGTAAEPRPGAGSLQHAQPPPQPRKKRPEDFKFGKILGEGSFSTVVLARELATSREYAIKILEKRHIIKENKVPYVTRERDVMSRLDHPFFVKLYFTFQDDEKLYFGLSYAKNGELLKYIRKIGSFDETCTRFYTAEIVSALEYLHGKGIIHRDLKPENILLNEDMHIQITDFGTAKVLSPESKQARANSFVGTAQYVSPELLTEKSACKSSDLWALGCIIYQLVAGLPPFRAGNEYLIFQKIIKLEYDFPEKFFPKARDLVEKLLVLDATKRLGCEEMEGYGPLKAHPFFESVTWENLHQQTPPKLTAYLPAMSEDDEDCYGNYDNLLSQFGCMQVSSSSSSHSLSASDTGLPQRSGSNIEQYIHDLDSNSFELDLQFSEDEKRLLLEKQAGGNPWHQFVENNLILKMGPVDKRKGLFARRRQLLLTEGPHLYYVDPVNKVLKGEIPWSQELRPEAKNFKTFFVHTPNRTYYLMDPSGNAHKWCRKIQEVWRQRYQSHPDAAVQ
Chain of PHKG1 or PHKG2 (human) (P15735 whole entry, looked up): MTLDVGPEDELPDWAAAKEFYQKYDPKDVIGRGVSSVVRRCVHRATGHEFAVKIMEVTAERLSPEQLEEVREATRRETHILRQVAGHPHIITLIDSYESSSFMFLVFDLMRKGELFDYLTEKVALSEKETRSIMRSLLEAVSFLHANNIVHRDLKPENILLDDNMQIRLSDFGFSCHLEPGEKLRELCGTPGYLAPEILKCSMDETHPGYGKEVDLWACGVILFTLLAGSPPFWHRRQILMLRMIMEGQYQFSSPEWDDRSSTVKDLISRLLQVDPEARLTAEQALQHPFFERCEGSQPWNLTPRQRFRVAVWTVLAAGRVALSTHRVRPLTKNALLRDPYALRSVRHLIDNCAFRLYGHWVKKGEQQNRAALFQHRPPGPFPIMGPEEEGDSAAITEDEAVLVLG
Chain of PHKG1 or PHKG2 (human) (Q16816 whole entry, looked up): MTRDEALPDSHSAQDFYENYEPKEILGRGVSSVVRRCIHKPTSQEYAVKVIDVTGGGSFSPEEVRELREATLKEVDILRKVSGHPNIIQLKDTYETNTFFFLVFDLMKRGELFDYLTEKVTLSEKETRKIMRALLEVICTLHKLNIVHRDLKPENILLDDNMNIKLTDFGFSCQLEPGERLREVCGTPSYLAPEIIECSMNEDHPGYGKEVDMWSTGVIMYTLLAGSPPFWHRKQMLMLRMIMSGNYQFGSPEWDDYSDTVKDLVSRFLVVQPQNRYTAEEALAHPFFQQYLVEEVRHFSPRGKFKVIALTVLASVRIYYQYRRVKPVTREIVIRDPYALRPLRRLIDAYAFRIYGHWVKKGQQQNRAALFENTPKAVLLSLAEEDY
Chain of MAPK11 (human) (Q15759 whole entry, looked up): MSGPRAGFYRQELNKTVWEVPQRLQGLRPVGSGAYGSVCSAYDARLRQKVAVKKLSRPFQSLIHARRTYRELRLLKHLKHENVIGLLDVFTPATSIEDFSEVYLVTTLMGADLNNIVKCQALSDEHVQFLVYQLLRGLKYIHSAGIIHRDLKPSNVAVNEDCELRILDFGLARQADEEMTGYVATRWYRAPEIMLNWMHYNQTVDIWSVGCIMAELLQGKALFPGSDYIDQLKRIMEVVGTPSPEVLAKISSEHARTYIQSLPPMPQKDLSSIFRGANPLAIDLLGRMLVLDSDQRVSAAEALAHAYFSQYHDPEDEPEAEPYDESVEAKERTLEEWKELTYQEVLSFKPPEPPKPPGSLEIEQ
Chain of MAPK14 (human) (Q16539 whole entry, looked up): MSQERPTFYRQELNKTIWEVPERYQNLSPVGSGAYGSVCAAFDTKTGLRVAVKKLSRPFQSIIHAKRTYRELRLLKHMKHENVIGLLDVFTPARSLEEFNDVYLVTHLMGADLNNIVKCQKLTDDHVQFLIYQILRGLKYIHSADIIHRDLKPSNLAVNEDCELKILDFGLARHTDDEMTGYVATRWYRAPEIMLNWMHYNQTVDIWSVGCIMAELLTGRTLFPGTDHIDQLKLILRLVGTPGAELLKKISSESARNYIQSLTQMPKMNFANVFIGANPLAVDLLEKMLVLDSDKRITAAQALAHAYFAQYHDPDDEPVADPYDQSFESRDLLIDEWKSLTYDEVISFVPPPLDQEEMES
Chain of PKN2 (human) (Q16513 whole entry, looked up): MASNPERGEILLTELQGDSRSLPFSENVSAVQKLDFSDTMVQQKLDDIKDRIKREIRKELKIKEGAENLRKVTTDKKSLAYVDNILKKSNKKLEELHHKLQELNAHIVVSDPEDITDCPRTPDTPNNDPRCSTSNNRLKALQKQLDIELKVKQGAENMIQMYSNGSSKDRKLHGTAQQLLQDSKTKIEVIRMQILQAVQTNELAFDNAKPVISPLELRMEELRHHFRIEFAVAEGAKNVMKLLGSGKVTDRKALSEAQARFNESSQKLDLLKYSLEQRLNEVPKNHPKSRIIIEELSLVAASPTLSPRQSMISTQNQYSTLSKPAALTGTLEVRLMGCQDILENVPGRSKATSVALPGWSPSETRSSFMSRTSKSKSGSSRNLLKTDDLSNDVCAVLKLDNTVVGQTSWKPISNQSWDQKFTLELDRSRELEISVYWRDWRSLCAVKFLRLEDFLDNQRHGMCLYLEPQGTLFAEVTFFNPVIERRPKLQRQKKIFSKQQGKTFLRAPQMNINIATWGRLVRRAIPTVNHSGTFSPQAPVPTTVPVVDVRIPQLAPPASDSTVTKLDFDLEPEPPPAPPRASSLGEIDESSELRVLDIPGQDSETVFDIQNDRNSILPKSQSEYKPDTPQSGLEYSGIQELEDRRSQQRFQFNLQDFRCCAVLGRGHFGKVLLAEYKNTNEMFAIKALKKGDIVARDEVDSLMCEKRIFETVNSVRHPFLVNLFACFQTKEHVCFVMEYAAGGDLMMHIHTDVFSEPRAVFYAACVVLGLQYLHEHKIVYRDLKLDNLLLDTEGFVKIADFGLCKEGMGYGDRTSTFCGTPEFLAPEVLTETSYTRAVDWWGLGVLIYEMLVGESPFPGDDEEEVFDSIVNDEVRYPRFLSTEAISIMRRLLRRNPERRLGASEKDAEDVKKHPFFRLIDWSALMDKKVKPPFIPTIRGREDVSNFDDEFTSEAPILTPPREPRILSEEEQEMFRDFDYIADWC
Chain of PAK7 (human) (Q9P286 whole entry, looked up): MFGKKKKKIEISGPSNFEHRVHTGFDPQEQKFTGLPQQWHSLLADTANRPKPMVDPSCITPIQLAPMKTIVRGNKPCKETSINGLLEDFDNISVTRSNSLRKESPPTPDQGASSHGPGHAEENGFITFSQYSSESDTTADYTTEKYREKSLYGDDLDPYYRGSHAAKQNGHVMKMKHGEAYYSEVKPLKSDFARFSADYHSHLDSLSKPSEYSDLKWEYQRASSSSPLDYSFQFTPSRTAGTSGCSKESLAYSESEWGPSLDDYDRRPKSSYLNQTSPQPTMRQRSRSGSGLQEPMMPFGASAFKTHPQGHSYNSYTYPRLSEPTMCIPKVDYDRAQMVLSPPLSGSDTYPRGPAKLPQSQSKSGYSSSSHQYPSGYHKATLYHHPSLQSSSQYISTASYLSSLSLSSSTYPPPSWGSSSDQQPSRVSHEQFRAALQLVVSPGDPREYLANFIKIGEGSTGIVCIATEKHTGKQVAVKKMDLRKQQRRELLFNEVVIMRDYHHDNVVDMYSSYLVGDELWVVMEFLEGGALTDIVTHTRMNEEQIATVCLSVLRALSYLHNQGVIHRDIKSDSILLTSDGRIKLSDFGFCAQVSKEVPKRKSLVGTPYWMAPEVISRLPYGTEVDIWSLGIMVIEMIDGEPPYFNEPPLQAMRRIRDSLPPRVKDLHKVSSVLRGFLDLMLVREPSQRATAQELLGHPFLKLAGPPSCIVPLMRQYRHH

Question: With CN(C)S(=O)(=O)c1ccc2c(c1)/C(=C/c1cc3c([nH]1)CCCC3)C(=O)N2 as the molecule, how does the IC50 [1] read?
Answer: Its IC50 is 0.1 µM.

Question: Which residual activity [2] does the source give for COc1ccc2c(c1)[nH]c1c(C)nccc12 here?
Answer: Its residual activity is 60%.

Question: Which residual activity [3] does the source give for CC[C@@H](CO)Nc1nc(NCc2ccccc2)c2ncn(C(C)C)c2n1 here?
Answer: Its residual activity is 93%.

Question: And the residual activity [4]?
Answer: The residual activity was 94%.

Question: What about the residual activity [5] of the same molecule?
Answer: Its residual activity is 82%.

Question: And the residual activity [6]?
Answer: Its residual activity is 92%.

Question: What about the residual activity [7] of the same molecule?
Answer: The residual activity was 74%.

Question: What about the residual activity ([8]; ATP 20 µM) of the same molecule?
Answer: Its residual activity is 80%.

Question: And the residual activity ([8]; ATP 50 µM)?
Answer: Its residual activity is 90%.

Question: Which residual activity ([1]; compound 1.0 µM) does the source give for CC(C)(C)n1nc(-c2cccc3ccccc23)c2c(N)ncnc21 here?
Answer: The residual activity was 20%.

Question: Which residual activity [9] does the source give for Cc1ccc(NC(=O)c2cccc(N(C)C)c2)cc1NC(=O)c1ccc(O)cc1 here?
Answer: Its residual activity is 8%.

Question: How did the residual activity [10] turn out when COc1cc(OC)c(/C=C2\C(=O)Nc3ccccc32)c(OC)c1 was run?
Answer: The residual activity was 101%.

Question: NC(=O)c1ccc(-c2nc(-c3ccccn3)c(-c3ccc4c(c3)OCCO4)[nH]2)cc1 was tested. Which residual activity [11] did it give?
Answer: The residual activity was 107%.

Question: What about the residual activity [12] of the same molecule?
Answer: The residual activity was 107%.

Source: the kinase profiling compilation of Christmann-Franck et al. (2016)
